Structures are written as SMILES.

This is an account of results in patent publication US10035819B2, “PPAR agonists and methods of use thereof” (The Salk Institute for Biological Studies, priority 2014, dated 2018).

For the first assay, the target named is T1, Human PPARδ LBD (Homo sapiens, UniProt Q03181).
T1 construct: (PPARδ amino acid 128 to C-terminus); expressed in transfected cells; host or cells: CV-1 cells
T1 sequence (Q03181 128-441 limits assumed): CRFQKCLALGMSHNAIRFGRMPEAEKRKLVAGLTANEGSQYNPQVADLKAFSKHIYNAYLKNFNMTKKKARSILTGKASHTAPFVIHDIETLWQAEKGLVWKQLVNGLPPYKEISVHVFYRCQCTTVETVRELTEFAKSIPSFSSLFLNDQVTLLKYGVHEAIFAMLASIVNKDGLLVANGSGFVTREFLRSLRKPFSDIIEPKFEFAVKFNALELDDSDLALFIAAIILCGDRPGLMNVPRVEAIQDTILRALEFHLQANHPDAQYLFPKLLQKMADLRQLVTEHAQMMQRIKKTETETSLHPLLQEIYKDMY
The assay is described as follows: PPARδ activity screen (GAL4-PPARδ LBD luciferase transactivation in CV-1 cells). The following applies: EC50 nM, Table 1; CV-1 cells, GAL4-PPARδ LBD luciferase reporter, compound 24 h. Type of assay: cell-based. The protocol:
Cell Culture and Transfection: CV-1 cells were grown in DMEM+10% charcoal stripped FCS. Cells were seeded into 384-well plates the day before transfection to give a confluency of 50-80% at transfection. A total of […] containing 0.64 micrograms pCMX-PPARDelta LBD, 0.1 micrograms pCMXβGal, 0.08 micrograms pGLMH2004 reporter and 0.02 micrograms pCMX empty vector was transfected per well using FuGene transfection reagent according to the manufacturer's instructions (Roche).
Plasmids: Human PPARδ was used to PCR amplify the PPARδ LBD. […] Ensuing fusions were verified by sequencing.
Compounds: All compounds were dissolved in DMSO and diluted 1:1000 upon addition to the cells. Compounds were tested in quadruple in concentrations ranging from 0.001 to 100 μM. […] Each compound was tested in at least two separate experiments.
Luciferase assay: Medium including test compound was aspirated and washed with PBS. 50 μl PBS including 1 mM Mg++ and Ca++ were then added to each well. The luciferase assay was performed using the LucLite kit according to the manufacturer's instructions (Packard Instruments). Light emission was quantified by counting on a Perkin Elmer Envision reader. […] Beta-galactosidase assays were performed in the microwell plates using a kit from Promega and read in a Perkin Elmer Envision reader. The beta-galactosidase data were used to normalize (transfection efficiency, cell growth etc.) the luciferase data.
Statistical Methods: The activity of a compound is calculated as fold induction compared to an untreated sample. […] EC50 values were calculated via non-linear regression using GraphPad PRISM (GraphPad Software, San Diego, Calif.).
Take `CC(C)N(Cc1ccccc1OCCCCCC(=O)O)C(=O)c1ccc(-c2ccccc2)cc1` [compound 1]: the midpoint of the response, the EC50, lay at 42 nM.
Same read-out and setting: as for `O=C(O)CCCCCOc1ccccc1CN(C(=O)c1ccc(-c2ccccc2)cc1)C1CC1` [compound 8], the figure is 115 nM.
As for `O=C(O)CCCCCOc1ccccc1CN(C(=O)c1ccc(-c2cccs2)cc1)C1CC1` [compound 14], the EC50 amounted to 1800 nM.
Same read-out and setting: as for `CCC(C)N(Cc1ccccc1OCCCCCC(=O)O)C(=O)c1ccc(Br)cc1` (centres unmarked) [compound 32], the figure is 611 nM; as for `CCC(C)N(Cc1ccccc1OCCCCCC(=O)O)C(=O)c1ccc(-c2ccccc2)cc1` (centres unmarked) [compound 33], 954 nM; as for `CCC(C)N(Cc1ccccc1OCCCCCC(=O)O)C(=O)c1ccc(-c2cccnc2)cc1` (centres unmarked) [compound 34], 5140 nM.
On the same count and under the same terms, in the case of `CCC(C)N(Cc1ccccc1OCCCCCC(=O)O)C(=O)c1ccc(-c2ccncc2)cc1` (centres unmarked) [compound 35] it was 6400 nM; in that of `CCC(C)N(Cc1ccccc1OCCCCCC(=O)O)C(=O)c1ccc(-c2cn[nH]c2)cc1` (centres unmarked) [compound 36], 15400 nM.
For `CCC(C)N(Cc1ccccc1OCCCCCC(=O)O)C(=O)c1ccc(-c2ccoc2)cc1` (centres unmarked) [compound 38], it took 290 nM to reach a half-maximal effect (EC50).
On the same count and under the same terms, in the case of `CCC(C)N(Cc1ccccc1OCCCCCC(=O)O)C(=O)c1ccc(-c2cccs2)cc1` (centres unmarked) [compound 39] it was 2100 nM; in that of `CCC(C)N(Cc1ccccc1OCCCCCC(=O)O)C(=O)c1ccc(-c2ccsc2)cc1` (centres unmarked) [compound 40], 179 nM; in that of `CC(C)N(Cc1ccccc1OCCCCCC(=O)O)C(=O)c1ccc(-c2cccnc2)cc1` [compound 58], 1240 nM.
Still for that read-out and setting: in the case of `O=C(O)CCCCCOc1ccccc1CN(C(=O)c1ccc(-c2ccccc2)cc1)C1CCCC1` [compound 65] it was 405 nM; in that of `Cc1ccccc1-c1ccc(C(=O)N(Cc2ccccc2OCCCCCC(=O)O)C2CC2)cc1` [compound 75], 1190 nM.
The same measure, in the same setting: as for `Cc1cccc(-c2ccc(C(=O)N(Cc3ccccc3OCCCCCC(=O)O)C3CC3)cc2)c1` [compound 76], the figure is 318 nM; as for `Cc1ccc(-c2ccc(C(=O)N(Cc3ccccc3OCCCCCC(=O)O)C3CC3)cc2)cc1` [compound 77], 372 nM.

Still in this assay, the particulars now being: Table 1; CV-1 cells, GAL4-PPARδ LBD luciferase reporter, compound 24 h; read-out: EC50.
Turning to `O=C(O)CCCCCOc1ccccc1CN(C(=O)c1ccc(-c2cccnc2)cc1)C1CC1` [compound 9], the EC50 came to 1960 nM.
Same read-out and setting: as for `O=C(O)CCCCCOc1ccccc1CN(C(=O)c1ccc(-c2cn[nH]c2)cc1)C1CC1` [compound 11], the figure is 2120 nM.
The same measure, in the same setting: in the case of `O=C(O)CCCCCOc1ccccc1CN(C(=O)c1ccc(-c2ccoc2)cc1)C1CC1` [compound 13] it was 215 nM; in that of `O=C(O)CCCCCOc1ccccc1CN(C(=O)c1ccc(-c2ccsc2)cc1)C1CC1` [compound 15], 58.4 nM.
On the same count and under the same terms, in the case of `CC(C)N(Cc1ccccc1OCCCCCC(=O)O)C(=O)c1ccc(-c2ccncc2)cc1` [compound 59] it was 2860 nM; in that of `CC(C)N(Cc1ccccc1OCCCCCC(=O)O)C(=O)c1ccc(-c2cn[nH]c2)cc1` [compound 60], 710 nM.
With `O=C(O)CCCCCOc1ccccc1CN(C(=O)c1ccc(-c2cccnc2)cc1)C1CCCC1` [compound 66], the EC50 is 786 nM.
Still for that read-out and setting: in the case of `O=C(O)CCCCCOc1ccccc1CN(C(=O)c1ccc(-c2ccncc2)cc1)C1CCCC1` [compound 67] it was 1490 nM; in that of `O=C(O)CCCCCOc1ccccc1CN(C(=O)c1ccc(-c2cn[nH]c2)cc1)C1CCCC1` [compound 68], 605 nM.
Still for that read-out and setting: as for `O=C(O)CCCCCOc1ccccc1CN(C(=O)c1ccc(-c2ccco2)cc1)C1CCCC1` [compound 69], the figure is 51.4 nM; as for `O=C(O)CCCCCOc1ccccc1CN(C(=O)c1ccc(-c2ccoc2)cc1)C1CCCC1` [compound 70], 127 nM; as for `O=C(O)CCCCCOc1ccccc1CN(C(=O)c1ccc(-c2cccs2)cc1)C1CCCC1` [compound 71], 753 nM.
As to `O=C(O)CCCCCOc1ccccc1CN(C(=O)c1ccc(-c2ccsc2)cc1)C1CCCC1` [compound 72], the EC50 came out at 29.3 nM.

For orientation: EC50 means the concentration at which the effect is half-maximal.
